Experimental data taken from patent publication US5691344A, “Vasoconstrictive substituted dihydropyranopyridines” (Janssen Pharmaceutica, N.V., priority 1993, dated 1997).
Structures can show the parent of a compound that is named as a salt.

Tested on: basilar arteries
Assay: Constriction of isolated basilar artery segments of pigs (serotonin-like response, % of response to serotonin)
Settings: Sus scrofa; constrictive response expressed as percentage of previous response to serotonin (3×10^-7 M); Krebs-Henseleit solution, 37° C.; read-out: IC50 (the source's name)
Source text: The compounds of formula (I), the pharmaceutically acceptable acid-additionsalts and stereochemically isomeric forms thereof have interesting pharmacological properties: they show 5HT1-like agonistic activity. The compounds of the present invention have a remarkable vasoconstrictor activity. They are useful to prevent and treat conditions which are related to vasodilatation. For instance, they are useful in the treatment of conditions characterized by or associated with cephalic pain, e.g. cluster headache and headache associated with vascular disorders, especially migraine. These compounds are also useful in the treatment of venous insufficiency and in the treatment of conditions associated with hypotension. The vasoconstrictor activity of the compounds of formula (I) can be determined using an in vitro-test as is described in "Instantaneous changes of alpha-adrenoreceptor affinity caused by moderate cooling in canine cutaneous veins" in the American Journal of Physiology 234(4), H330-H337, 1978; or in the test described in the pharmacological example, wherein the serotonin-like response of the compounds of the present invention was tested on the basilar arteries of pigs.
Segments of basilar arteries taken from pigs (anaesthetised with sodium pentobarbital) were mounted for recording of isometric tension in organ baths. The preparations were bathed in Krebs--Henseleit solution. The solution was kept at 37° C. and gassed with a mixture of 95% O2 -5% CO2. The preparations were stretched until a stable basal tension of 2 grams was obtained.
The preparations were made to constrict with serotonin (3×10^-7 M). The response to the addition of serotonin was measured and subsequently the serotonin was washed away. This procedure was repeated until stable responses were obtained. Subsequently the test compound was administered to the organ bath and the constriction of the preparation was measured. This constrictive response was expressed as a percentage of the response to serotonin as measured previously.

SMILES | EC50
c1cnc2c(c1)CCC(CNCCCNC1=NCCCN1)O2 (racemic) [Co. No. 2, N-[(3,4-dihydro-2H-pyrano[2,3-b]pyridin-2-yl)methyl]-N'-(1,4,5,6-tetrahydro-2-pyrimidinyl)-1,3-propanediamine dihydrochloride. 2-propanolate (2:1). monohydrate] | 130 nM
[O-][n+]1cccc2c1OC(CNCCCNc1ncccn1)CC2 (racemic) [Co. No. 3, (±)-N-(3,4-dihydro-2H-pyrano[2,3-b]pyridon-2-yl)methyl]-N'-2-pyrimidinyl-1,3-propanediamine, N-oxide ethanedioate (2:1). monohydrate] | 340 nM
CSc1nccc(NCCCNCC2CCc3cccnc3O2)n1 (racemic) [Co. No. 5] | 260 nM

These reach a lower EC50. Values come first.

EC50 | SMILES
120 nM | c1ccc(NCCCNCC2CCc3cccnc3O2)nc1 (racemic) [Co. No. 6]
71 nM | c1cnc(NCCCNCC2CCc3cccnc3O2)nc1 (racemic) [Co. No. 1, (±)-N-[(3,4-dihydro-2H-pyrano[2,3-b]-pyridin-2-yl)methyl]-N'-2-pyrimidinyl-1,3-propanediamine trihydrochloride. 2-propanolate(1:1). monohydrate]
